#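 Step 1: Grow cells in 96-well plates. Step 2: Expose to compound for 48 hours at 5 concentrations. Step 3: Interpolate endpoints linearly; if unreached, use highest concentration. Here, GI50 denotes the concentration required for 50% inhibition of growth. The concentration for full growth arrest is given as TGI.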
# Columns and labels:
# Assay in all cases: DTP human tumour cell line panel, 48 h
# RPMI-8226 leukemia = system: RPMI-8226 leukemia
# PC-3 prostate = system: PC-3 prostate
# SF-295 CNS = system: SF-295 CNS
# SW-620 colon = system: SW-620 colon
# IGROV1 ovarian = system: IGROV1 ovarian
# HCC-2998 colon = system: HCC-2998 colon
# CCRF-CEM leukemia = system: CCRF-CEM leukemia
# SNB-19 CNS = system: SNB-19 CNS
# NCI/ADR-RES ovarian = system: NCI/ADR-RES ovarian
# MDA-MB-435 = system: MDA-MB-435
# A498 renal = system: A498 renal
# LOX IMVI melanoma = system: LOX IMVI melanoma
# HOP-62 NSCLC = system: HOP-62 NSCLC
# MOLT-4 leukemia = system: MOLT-4 leukemia
# SR leukemia = system: SR leukemia
# SK-OV-3 ovarian = system: SK-OV-3 ovarian
# UO-31 renal = system: UO-31 renal
# HCT-116 colon = system: HCT-116 colon
# NCI-H23 lung = system: NCI-H23 lung
# A549 NSCLC = system: A549 NSCLC
# MALME-3M melanoma = system: MALME-3M melanoma
# BT-549 breast = system: BT-549 breast
# HL-60(TB) leukemia = system: HL-60(TB) leukemia
# M14 melanoma = system: M14 melanoma
# CAKI-1 renal = system: CAKI-1 renal
# UACC-62 melanoma = system: UACC-62 melanoma
# COLO 205 colon = system: COLO 205 colon
# U251 CNS = system: U251 CNS
# UACC-257 melanoma = system: UACC-257 melanoma
# SN12C renal = system: SN12C renal
# NCI-H522 lung = system: NCI-H522 lung
# OVCAR-8 ovarian = system: OVCAR-8 ovarian
# OVCAR-4 ovarian = system: OVCAR-4 ovarian
# RXF 393 renal = system: RXF 393 renal
# DU-145 prostate = system: DU-145 prostate
# SNB-75 CNS = system: SNB-75 CNS
# SF-268 CNS = system: SF-268 CNS
# SK-MEL-2 melanoma = system: SK-MEL-2 melanoma
# OVCAR-5 ovarian = system: OVCAR-5 ovarian
# HCT-15 colon = system: HCT-15 colon
# T-47D breast = system: T-47D breast
# SK-MEL-28 melanoma = system: SK-MEL-28 melanoma
# KM12 colon = system: KM12 colon
# NCI-H460 lung = system: NCI-H460 lung
# K-562 leukemia = system: K-562 leukemia
# TK-10 renal = system: TK-10 renal
# SF-539 CNS = system: SF-539 CNS
# OVCAR-3 ovarian = system: OVCAR-3 ovarian
# HOP-92 NSCLC = system: HOP-92 NSCLC
# MCF7 breast = system: MCF7 breast
# SK-MEL-5 melanoma = system: SK-MEL-5 melanoma
# HT29 colon = system: HT29 colon
# 786-0 renal = system: 786-0 renal
# HS 578T breast = system: HS 578T breast
# ACHN renal = system: ACHN renal
# MDA-MB-231 breast = system: MDA-MB-231 breast
smiles,measurement,setting,value
Cc1cccc(-n2cnc3cc(C(=O)N4CCCCC4)ccc32)c1,GI50,RPMI-8226 leukemia,> 100 µM
same,TGI,RPMI-8226 leukemia,> 100 µM
same,GI50,PC-3 prostate,> 100 µM
same,TGI,PC-3 prostate,> 100 µM
same,GI50,SF-295 CNS,65.1 µM
same,TGI,SF-295 CNS,> 100 µM
same,GI50,SW-620 colon,> 100 µM
same,TGI,SW-620 colon,> 100 µM
same,GI50,IGROV1 ovarian,> 100 µM
same,TGI,IGROV1 ovarian,> 100 µM
same,GI50,HCC-2998 colon,> 100 µM
same,TGI,HCC-2998 colon,> 100 µM
same,GI50,CCRF-CEM leukemia,> 100 µM
same,TGI,CCRF-CEM leukemia,> 100 µM
same,GI50,SNB-19 CNS,48.8 µM
same,TGI,SNB-19 CNS,> 100 µM
same,GI50,NCI/ADR-RES ovarian,37.9 µM
same,TGI,NCI/ADR-RES ovarian,> 100 µM
same,GI50,MDA-MB-435,> 100 µM
same,TGI,MDA-MB-435,> 100 µM
same,GI50,A498 renal,51.3 µM
same,TGI,A498 renal,> 100 µM
same,GI50,LOX IMVI melanoma,> 100 µM
same,TGI,LOX IMVI melanoma,> 100 µM
same,GI50,HOP-62 NSCLC,> 100 µM
same,TGI,HOP-62 NSCLC,> 100 µM
same,GI50,MOLT-4 leukemia,> 100 µM
same,TGI,MOLT-4 leukemia,> 100 µM
same,GI50,SR leukemia,> 100 µM
same,TGI,SR leukemia,> 100 µM
same,GI50,SK-OV-3 ovarian,> 100 µM
same,TGI,SK-OV-3 ovarian,> 100 µM
same,GI50,UO-31 renal,29.8 µM
same,TGI,UO-31 renal,> 100 µM
same,GI50,HCT-116 colon,> 100 µM
same,TGI,HCT-116 colon,> 100 µM
same,GI50,NCI-H23 lung,> 100 µM
same,TGI,NCI-H23 lung,> 100 µM
same,GI50,A549 NSCLC,85.5 µM
same,TGI,A549 NSCLC,> 100 µM
same,GI50,MALME-3M melanoma,> 100 µM
same,TGI,MALME-3M melanoma,> 100 µM
same,GI50,BT-549 breast,97 µM
same,TGI,BT-549 breast,> 100 µM
same,GI50,HL-60(TB) leukemia,> 100 µM
same,TGI,HL-60(TB) leukemia,> 100 µM
same,GI50,M14 melanoma,> 100 µM
same,TGI,M14 melanoma,> 100 µM
same,GI50,CAKI-1 renal,> 100 µM
same,TGI,CAKI-1 renal,> 100 µM
same,GI50,UACC-62 melanoma,48 µM
same,TGI,UACC-62 melanoma,> 100 µM
same,GI50,COLO 205 colon,49.9 µM
same,TGI,COLO 205 colon,> 100 µM
same,GI50,U251 CNS,62.6 µM
same,TGI,U251 CNS,> 100 µM
same,GI50,UACC-257 melanoma,> 100 µM
same,TGI,UACC-257 melanoma,> 100 µM
same,GI50,SN12C renal,> 100 µM
same,TGI,SN12C renal,> 100 µM
same,GI50,NCI-H522 lung,> 100 µM
same,TGI,NCI-H522 lung,> 100 µM
same,GI50,OVCAR-8 ovarian,91.9 µM
same,TGI,OVCAR-8 ovarian,> 100 µM
same,GI50,OVCAR-4 ovarian,46 µM
same,TGI,OVCAR-4 ovarian,> 100 µM
same,GI50,RXF 393 renal,23.9 µM
same,TGI,RXF 393 renal,> 100 µM
same,GI50,DU-145 prostate,> 100 µM
same,TGI,DU-145 prostate,> 100 µM
same,GI50,SNB-75 CNS,30 µM
same,TGI,SNB-75 CNS,> 100 µM
same,GI50,SF-268 CNS,> 100 µM
same,TGI,SF-268 CNS,> 100 µM
same,GI50,SK-MEL-2 melanoma,> 100 µM
same,TGI,SK-MEL-2 melanoma,> 100 µM
same,GI50,OVCAR-5 ovarian,> 100 µM
same,TGI,OVCAR-5 ovarian,> 100 µM
same,GI50,HCT-15 colon,56.6 µM
same,TGI,HCT-15 colon,> 100 µM
same,GI50,T-47D breast,28 µM
same,TGI,T-47D breast,93.1 µM
same,GI50,SK-MEL-28 melanoma,59.1 µM
same,TGI,SK-MEL-28 melanoma,> 100 µM
same,GI50,KM12 colon,> 100 µM
same,TGI,KM12 colon,> 100 µM
same,GI50,NCI-H460 lung,> 100 µM
same,TGI,NCI-H460 lung,> 100 µM
same,GI50,K-562 leukemia,59.9 µM
same,TGI,K-562 leukemia,> 100 µM
same,GI50,TK-10 renal,> 100 µM
same,TGI,TK-10 renal,> 100 µM
same,GI50,SF-539 CNS,85.5 µM
same,TGI,SF-539 CNS,> 100 µM
same,GI50,OVCAR-3 ovarian,54.9 µM
same,TGI,OVCAR-3 ovarian,> 100 µM
same,GI50,HOP-92 NSCLC,41.4 µM
same,TGI,HOP-92 NSCLC,> 100 µM
same,GI50,MCF7 breast,48.4 µM
same,TGI,MCF7 breast,> 100 µM
same,GI50,SK-MEL-5 melanoma,20 µM
same,TGI,SK-MEL-5 melanoma,53.1 µM
same,GI50,HT29 colon,> 100 µM
same,TGI,HT29 colon,> 100 µM
same,GI50,786-0 renal,> 100 µM
same,TGI,786-0 renal,> 100 µM
same,GI50,HS 578T breast,72.7 µM
same,TGI,HS 578T breast,> 100 µM
same,GI50,ACHN renal,> 100 µM
same,TGI,ACHN renal,> 100 µM
same,GI50,MDA-MB-231 breast,92.2 µM
same,TGI,MDA-MB-231 breast,> 100 µM

# Reference: PubChem BioAssay (NCI)
